Assay results from patent publication US20240132559A1, “COMPOSITIONS AND METHODS FOR MODULATING MYC EXPRESSION” (FLAGSHIP PIONEERING INNOVATIONS V, INC., priority 2020, published 2024).
pIC50: −log10 of the molar value. Entries after “also recorded” stand apart in the source; their conditions may differ.

What was measured:
MYC = MYC mRNA expression by qPCR in human HCC cell lines after LNP transfection; type: cell-based; conditions: HepG2, Hep3B and SKHEP1
Experimental: In this example, dCas9-KRAB mRNA was delivered to human HCC cell lines (HepG2, Hep3B and SKHEP1) with individual sgRNA (Table 1 and FIG. 1A-B) targeting it to the CTCF motif (GD-28616), CTCF “anchor” site (GD-28859), or the MYC promoter (GD-28617). The effector mRNA and sgRNA were co-delivered using LNP delivery with SSOP. For controls, both (1) dCas9 (no effector) combined with sgRNA, and (2) untreated cells were used to assess changes. HCC cells were seeded in 96-well plates in growth media (5000 cell/well). LNP formulations (2-2.5 ug/ml) were then added to the cells to transfect the mRNA and sgRNA. All treatments were done in biological triplicate. Timepoints ranging from 24-168 hours were assessed for MYC expression and cell viability. RNA was isolated from four independent experiments using the RNeasy® plus 96-well Kit (Qiagen) following the Manufacture's protocol. RNA samples were retrotranscribed to cDNA using LunaScript® RT SuperMix Kit (NEB) and analyzed by quantitative PCR (qPCR) (in technical triplicates) using a MYC specific TaqMan™ primer/probe set assay with the TaqMan™ Fast Advanced Master Mix (Thermo Scientific). MYC expression was quantified relative to the expression of GAPDH reference genes using the ΔΔCt method. The untreated and dCas9(no-effector) samples were used as calibrators. […]

[1] = tested on: HCC cells (HepG2, Hep3B, SKHEP1, SNU-182, SNU-449); experiment: Cell viability (CellTiter-GLO) of human HCC cell lines; type: cell-based; conditions: 72 and 168 hours
From the text: This example describes down-regulating MYC1 expression by targeting KRAB effector fused to zinc finger domains to the upstream region directly adjacent to the CTCF motif (GD-28859). In this example, zinc finger-directed KRAB effectors (ZF-KRAB effectors) were designed to bind the anchor site at the DNA region targeted by GD-28859 (FIG. 4A). 7 constructs (dCas-KRAB/GD-59, ZF1-KRAB, ZF2-KRAB, ZF3-KRAB, ZF4-KRAB, ZF5-KRAB, and ZF6-KRAB) were designed and screened in human HCC models (HepG2, Hep3B, SKHEP1). Negative controls for these experiments included untreated cells and dCas9-KRAB/GD-28859 was used as positive control. RNA was isolated from two independent experiments, each done in biological triplicate, using the Rneasy® Plus 96-well Kit (Qiagen) following the Manufacture's protocol. RNA samples were retrotranscribed to cDNA using LunaScript® RT SuperMix Kit (NEB) and analyzed by quantitative PCR (qPCR) (in technical triplicates) using a MYC specific Taqman primer/probe set assay with the TaqMan™ Fast Advanced Master Mix (Thermo Scientific). MYC expression was quantified relative to the expression of GAPDH reference genes using the ΔΔCt method, the untreated and dCas9(no-effector) samples were used as calibrators. Cell viability was assessed by ATP quantification using CellTiter-GLO® Luminescent Cell Viability Assay (Promega #G9241). […]

[2] = tested on: MYC super-enhancer and MYC promoter region; experiment: Targeted bisulfite sequencing of super-enhancer and promoter regions in NCI-H2009; type: cell-based, human; conditions: guides 29833 and 29914, 72 hours
Experimental: The CRISPR-dCas9 system was modified by tethering it to epigenetic repressor: MQ1. These molecules modulate transcriptional repression methylating the CpG nucleotides of the DNA. The effector mRNA and super-enhancer guide RNAs (29833 and 29914) were co-delivered using LNP delivery with SSOP with mRNA delivery of GFP or a dCAS9-no effector construct (dCas9-NE) as negative controls. NCSLC cell line NCI-H2009 was seeded in a 6 well plates in growth media (˜100000 cells/well). LNP formulations (2.5 ug/ml) were then added to the cells to transfect the effector mRNA/guide RNA then incubated for 72 hours. DNA was isolated using Lucigen QuickExtract™ DNA extraction kit and methylated regions were determined using targeted bisulfite sequencing of the promoter and super-enhancer regions.

SKHEP1 and Hep 3B cells = experiment: IC50 of sorafenib or JQ1 in combination with bi-cistronic ZF9-MQ1_ZF3-KRAB; type: cell-based, human; conditions: for IC50 of sorafenib: in combination with 0.1 ug/ml bi-cistronic ZF9-MQ1_ZF3-KRAB; for pIC50: Homo sapiens
Hep 3B cells = experiment: Sorafenib dose response viability with bi-cistronic ZF9-MQ1_ZF3-KRAB (CellTiter-GLO); type: cell-based; conditions: Homo sapiens, Hep3B, 72 h
Experimental: (§1) In this example, the effect of bi-cistronic ZF9-MQ1_ZF3-KRAB on the small molecule sorafenib (multi-kinase inhibitor) efficacy in HCC cell lines was evaluated. Sorafenib is used as a standard of care in HCC and high MYC levels can predict sorafenib resistance. It was hypothesized that bi-cistronic ZF9-MQ1_ZF3-KRAB may re-sensitize HCC to sorafenib through its downregulation of MYC. Dose response assays were utilized to evaluate if bi-cistronic ZF9-MQ1_ZF3-KRAB treatment could decrease the IC50 of sorafenib.
(§2) To evaluate potential synergy between bi-cistronic ZF9-MQ1_ZF3-KRAB and sorafenib, Hep 3B or SK-HEP-1 cells were plated in 96 well plates at 10,000 cells per well. Cells were then treated with sorafenib at a dose range between 0.1 and 25 μM, with serial dilution of 1:2. Lipid mix carrying bi-cistronic ZF9-MQ1_ZF3-KRAB was then added to a subset of the wells at a dose of 0.1 or 0.6 μg/mL. A set of cells was treated with sorafenib alone to use as control. Following 72-hour treatment, cells were lysed with the CellTiter-GLO® reagent and luminescence was quantified using the Glo Max. Relative cell viability was calculated by averaging the untreated values and dividing each experimental luciferase value by that average.

SK-HEP-1 cells = experiment: as above; type: cell-based; conditions: Homo sapiens, SK-HEP1, 72 h, SKHEP-1, 72-hour
Experimental: as §1, §2

subcutaneous H460 tumors = experiment: H460 subcutaneous tumor model in nude mice; type: in vivo, mouse; conditions: 50 mg/kg daily
Experimental: Disease was induced in nude mice by the implantation of subcutaneous H460 tumor cells into the left flank. Treatment was initiated when mean tumor volume reached approximately 100-150 mm^3. Mice were divided into treatment groups so that mean tumor volume in each group were approximately equal. Tumors were treated with PBS (vehicle), sorafenib (standard of care), non-coding RNA formulated in MC3 LNPs, or ZF9-MQ1 mRNA formulated in MC3 LNPs. PBS, Non-coding RNA (SEQ ID NO: 198) LNP and ZF9-MQ1 LNP were dosed at 3 mg/kg administered every five days. Sorafenib was dosed daily at 50 mg/kg. The length and width of tumors were measured twice weekly. Tumor volumes were calculated as (width^2×length)/2.

[3] = bi-cistronic ZF9-MQ1_ZF3-KRAB 0 μg/ml
[4] = bi-cistronic ZF9-MQ1_ZF3-KRAB 0.1 μg/ml
[5] = bi-cistronic ZF9-MQ1_ZF3-KRAB 0.6 μg/ml

Row | IC50 of sorafenib (SKHEP1 and Hep 3B cells; Hep 3B) | pIC50 (SKHEP1 and Hep 3B cells; Hep3B, Hep 3B, in combination with 0.6 ug/ml bi-cistronic ZF9-MQ1_ZF3-KRAB) | pIC50 (SKHEP1 and Hep 3B cells; Hep3B, Hep 3B, sorafenib without bi-cistronic ZF9-MQ1_ZF3-KRAB) | pIC50 (SKHEP1 and Hep 3B cells; SK-HEP1, SKHEP1, in combination with 0.6 ug/ml bi-cistronic ZF9-MQ1_ZF3-KRAB) | pIC50 (SKHEP1 and Hep 3B cells; SK-HEP1, SKHEP1, sorafenib without bi-cistronic ZF9-MQ1_ZF3-KRAB) | IC50 of sorafenib (SKHEP1 and Hep 3B cells; SKHEP1) | pIC50 (SK-HEP-1 cells; [3]) | pIC50 (SK-HEP-1 cells; [4]) | pIC50 (SK-HEP-1 cells; [5]) | Compound | MYC mRNA down-regulation (MYC; 72 hours) | MYC expression down-regulation (in words) (MYC) | effect on viability (in words) ([1]; HepG2 and Hep3B) | effect on viability (in words) ([1]; SK-HEP-1) | methylation of the distal promoter region [2] | pIC50 (Hep 3B cells; [3]) | pIC50 (Hep 3B cells; [4]) | pIC50 (Hep 3B cells; [5]) | average tumor volume at the study termination (subcutaneous H460 tumors) [mm^3]
1 |  |  |  |  |  |  |  |  |  | dCas9-MQ1: dCas9 fused to MQ1, SEQ ID NO: 35 | 50-90% | significantly greater effect on MYC expression than any of the human dCas9-DNMTs examined or dCas9-KRAB; also recorded: down-regulated MYC expression | dramatically decreased viability | minimally affected | about 50% |  |  |  | 
2 | did not change significantly | 5.54 | 5.36 | 4.97 | 4.91 | did not change significantly | 4.91 | 4.91 | 4.97 | CNC(=O)c1cc(Oc2ccc(NC(=O)Nc3ccc(Cl)c(C(F)(F)F)c3)cc2)ccn1 [sorafenib] |  |  |  |  |  | 5.36 | 5.37 | 5.54 | 752
